Data: patent publication US8809538B2, “Piperidine-containing compounds and use thereof” (Array BioPharma Inc., priority 2009, dated 2014)

How the values were obtained:
Crl: CD(SD) rats = assay: Evaluation of hepatic damage by the compounds in rats; type: in vivo; conditions: 100 mg/kg orally once daily for 4 days, blood at the day after the final dosing
Protocol: (3) Evaluation of Hepatic Damage by the Compounds in Rats
The compounds of the present invention were administered orally to male Crl: CD(SD) rats with four animals per group once daily for 4 days at dose levels of 0 (control) and 100 mg/kg to investigate hepatotoxicity. The compounds of the present invention were dissolved in 70% Wellsolve (solubilizer, Celeste Corporation) containing 30% DMSO (dimethyl sulfoxide) and administered orally at a dose volume of 10 mL/kg. The control group was treated with the vehicle at the same dosing volume.
Blood was drawn from the abdominal vein of each animal at the day after the final dosing. The plasma was separated by centrifugation at 13,684×g for 5 min at 4° C. The plasma concentration of aspartate aminotransferase (AST) and alanine aminotransferase (ALT), biochemical markers of hepatic damage, were measured.

[1] = system: rat transient focal cerebral ischemia model; assay: Assay of a neuroprotective effect in the rat transient focal cerebral ischemia model (MCA occlusion); type: in vivo, Sprague Dawley rats; conditions: 120 min MCA occlusion, 100 mg/kg orally 1 hour before and 12 hours after MCA occlusion, evaluated at 24 hours after MCA occlusion
Protocol: (2) Assay of a Neuroprotective Effect of the Compound in the Rat Transient Focal Cerebral Ischemia Model.
Transient focal cerebral ischemia (120 min) was induced by intraluminal middle cerebral artery (hereinafter abbreviated to MCA) occlusion using the method of Koizumi et al., (in Japanese Journal of Stroke 1986; 8:1-8). Male Sprague Dawley rats (7 weeks old; Charles River Japan) were used. Under conditions of 30% oxygen and 70% air, the animals inhaled 2.5% halothane (Takeda Chemical Industries, Ltd.) through a halothane vaporizer (Shinano Works). Under the anesthesia, the left common carotid artery (hereinafter abbreviated to CCA), the external carotid artery (hereinafter abbreviated to ECA) and the internal carotid artery (hereinafter abbreviated to ICA) were isolated from surrounding connective tissue, then the CCA and the ECA were ligated with surgical thread. […] Immediately before MCA reperfusion neurological score of animals were observed using the method of Yonemori et al., (in J Cereb Blood Flow Metab 1996; 16: 973-80.) and animals that scored less than 5 were excluded due to insufficient occlusion. […]
At 24 hours after MCA occlusion, neurological score were evaluated. […] The cerebral infarct area was identified in scanned images and measured using image analysis software (Photoshop 5.5/NIH image 1.63) to determine the infarct area per slice. […]

[2] = system: high fat-fed obese mice (C57BL/6-DIO); assay: Assay of an anti-diabetic effect in DIO (diet-induced obese) mice; type: in vivo; conditions: oral, 30 or 100 mg/kg b.i.d. for 15 days, overnight fasting state, dose-dependently
Excerpt: (1) Assay of an Anti-Diabetic Effect of the Compounds in DIO (Diet-Induced Obese) Mice
Male, 12-weeks old high fat-fed obese mice (C57BL/6-DIO, Charles River Japan) were orally administered with the compounds of the present invention twice a day for 15 days. During the experiment, mice were provided high fat pellet diet (D12492, Research Diets) and tap water from bottle of feed water ad libitum. On the first day of the experiment, blood samples were collected from tail vein using a microcapillary to measure plasma glucose concentration. Based on plasma glucose concentration, mice were divided into some groups (five mice per group) and started dosing. The dosing was carried out by oral gavage, after suspending the compounds of the present invention in the previously described vehicle. The control group received only the vehicle. After 15 days from starting the dosing, plasma samples were collected from tail vein at overnight fasting state. Plasma glucose and insulin levels were measured with commercial kits (glucose, Glucose CH-Test Wako®, Wako Pure Chemical Industries, Ltd.; insulin, Rat Insulin ELISA Kit, Morinaga Institute of Biological Science Inc.).

SMILES	plasma alanine aminotransferase (ALT) level (Crl: CD(SD) rats)	plasma aspartate aminotransferase (AST) level (Crl: CD(SD) rats)	cerebral infarct volume [1]	neurological score [1]	fasted plasma glucose level [2]	fasted plasma insulin level [2]
CCOc1nc(C(=O)NCC2CCN(Cc3cnc(-c4ccccn4)s3)CC2)cc(N)c1C#N [Example 115, 4-amino-5-cyano-6-ethoxy-N-((1-((2-(pyridin-2-yl)thiazol-5-yl)methyl)piperidin-4-yl)methyl)picolinamide]	not increased	not increased	significant preventive effect	significant preventive effect	significantly decreased	significantly decreased
CCOc1nc(C(=O)NCC2CCN(Cc3sc(-c4ccccn4)nc3CN(C)C)CC2)cc(N)c1C#N [Example 118, 4-amino-5-cyano-N-((1-((4-((dimethylamino)methyl)-2-(pyridin-2-yl)thiazol-5-yl)methyl)piperidin-4-yl)methyl)-6-ethoxypicolinamide]	not increased	not increased	–	–	–	–
